Reference: the supplement of paper PMC10307832

Columns and labels:
Assay in all cases: relative viability (nuclei count vs DMSO), 5 days (fraction); higher = more cells survive
NCI-H1651 = system: NCI-H1651
Procedure, shortened: (§1)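 Lung cancer cell lines were seeded in 1536-well plates and dosed by pin tool the next day, with either a single drug or a fixed anchor-drug dose combined with five library-drug doses (not always all listed) spaced in √10 steps. Five days later, one step fixed the cells and stained their nuclei (final 0.05% Triton X-100, 1% formaldehyde, 1 ug/ml Hoechst), and nuclei were counted on 4× images. Relative viability is the nuclei count in treated wells divided by the count in vehicle wells, and each value is the median of duplicate plates.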

NCI-H1792 = system: NCI-H1792
Procedure, shortened: as §1

NCI-H727 = system: NCI-H727
Procedure, shortened: as §1

PC-14 = system: PC-14
Procedure, shortened: as §1

NCI-H596 = system: NCI-H596
Procedure, shortened: as §1

NCI-H661 = system: NCI-H661
Procedure, shortened: as §1

NCI-H322M = system: NCI-H322M
Procedure, shortened: as §1

NCI-H460 = system: NCI-H460
Procedure, shortened: as §1

NCI-H1755 = system: NCI-H1755
Procedure, shortened: as §1

LXF-289 = system: LXF-289
Procedure, shortened: as §1

NCI-H3122 = system: NCI-H3122
Procedure, shortened: as §1

NCI-H520 = system: NCI-H520
Procedure, shortened: as §1

RERF-LC-KJ = system: RERF-LC-KJ
Procedure, shortened: as §1

NCI-H441 = system: NCI-H441
Procedure, shortened: as §1

LCLC-103H = system: LCLC-103H
Procedure, shortened: as §1

SK-MES-1 = system: SK-MES-1
Procedure, shortened: as §1

NCI-H2347 = system: NCI-H2347
Procedure, shortened: as §1

NCI-H1355 = system: NCI-H1355
Procedure, shortened: as §1

NCI-H1915 = system: NCI-H1915
Procedure, shortened: as §1

NCI-H1563 = system: NCI-H1563
Procedure, shortened: as §1

SW 900 = system: SW 900
Procedure, shortened: as §1

NCI-H522 = system: NCI-H522
Procedure, shortened: as §1

Compound `COc1cc2nccc(Oc3ccc(NC(=O)Nc4cc(C)on4)c(Cl)c3)c2cc1OC` [Tivozanib] + N=C(N)NC(=N)NCCc1ccccc1 [Phenformin] (partner 250 µM) has a relative viability (NCI-H1651; first compound 0.005 µM) of 0.297, a relative viability (NCI-H1651; first compound 0.01581 µM) of 0.425 and a relative viability (NCI-H1651; first compound 0.05 µM) of 0.314. The relative viability (NCI-H1651; first compound 0.1581 µM) was 0.36, the relative viability (NCI-H1651; first compound 0.5 µM) was 0.315 and the relative viability (NCI-H1792; first compound 0.005 µM) was 0.316. It also gave a relative viability (NCI-H1792; first compound 0.01581 µM) of 0.394, a relative viability (NCI-H1792; first compound 0.05 µM) of 0.361 and a relative viability (NCI-H1792; first compound 0.5 µM) of 0.388. The relative viability (NCI-H727; first compound 0.005 µM) was 0.664, the relative viability (NCI-H727; first compound 0.01581 µM) was 0.489 and the relative viability (NCI-H727; first compound 0.05 µM) was 0.439. It also gave a relative viability (NCI-H727; first compound 0.1581 µM) of 0.403, a relative viability (NCI-H727; first compound 0.5 µM) of 0.558 and a relative viability (PC-14; first compound 0.005 µM) of 0.443. For the same compound, the relative viability (PC-14; first compound 0.01581 µM) was 0.656, the relative viability (PC-14; first compound 0.05 µM) was 0.588 and the relative viability (PC-14; first compound 0.1581 µM) was 0.611. It also gave a relative viability (PC-14; first compound 0.5 µM) of 0.501, a relative viability (NCI-H596; first compound 0.005 µM) of 0.744 and a relative viability (NCI-H596; first compound 0.01581 µM) of 0.699. The relative viability (NCI-H596; first compound 0.05 µM) was 0.777, the relative viability (NCI-H596; first compound 0.5 µM) was 0.798 and the relative viability (NCI-H661; first compound 0.005 µM) was 0.264. For the same compound, the relative viability (NCI-H661; first compound 0.01581 µM) was 0.277, the relative viability (NCI-H661; first compound 0.05 µM) was 0.277 and the relative viability (NCI-H661; first compound 0.1581 µM) was 0.278. For the same compound, the relative viability (NCI-H661; first compound 0.5 µM) was 0.249, the relative viability (NCI-H322M; first compound 0.005 µM) was 0.721 and the relative viability (NCI-H322M; first compound 0.01581 µM) was 0.82. The relative viability (NCI-H322M; first compound 0.05 µM) was 0.776, the relative viability (NCI-H322M; first compound 0.1581 µM) was 0.689 and the relative viability (NCI-H322M; first compound 0.5 µM) was 0.655. For the same compound, the relative viability (NCI-H460; first compound 0.005 µM) was 0.491, the relative viability (NCI-H460; first compound 0.01581 µM) was 0.537 and the relative viability (NCI-H460; first compound 0.05 µM) was 0.509. It also gave a relative viability (NCI-H460; first compound 0.1581 µM) of 0.547, a relative viability (NCI-H460; first compound 0.5 µM) of 0.503 and a relative viability (NCI-H1755; first compound 0.005 µM) of 0.585. For the same compound, the relative viability (NCI-H1755; first compound 0.01581 µM) was 0.605, the relative viability (NCI-H1755; first compound 0.05 µM) was 0.631 and the relative viability (NCI-H1755; first compound 0.1581 µM) was 0.644. For the same compound, the relative viability (NCI-H1755; first compound 0.5 µM) was 0.459, the relative viability (LXF-289; first compound 0.005 µM) was 0.532 and the relative viability (LXF-289; first compound 0.01581 µM) was 0.506. It also gave a relative viability (LXF-289; first compound 0.05 µM) of 0.514, a relative viability (LXF-289; first compound 0.1581 µM) of 0.561 and a relative viability (LXF-289; first compound 0.5 µM) of 0.418. The relative viability (NCI-H3122; first compound 0.005 µM) was 0.376, the relative viability (NCI-H3122; first compound 0.01581 µM) was 0.419 and the relative viability (NCI-H3122; first compound 0.05 µM) was 0.383. It also gave a relative viability (NCI-H3122; first compound 0.1581 µM) of 0.361, a relative viability (NCI-H3122; first compound 0.5 µM) of 0.344 and a relative viability (NCI-H520; first compound 0.005 µM) of 0.57. For the same compound, the relative viability (NCI-H520; first compound 0.01581 µM) was 0.539, the relative viability (NCI-H520; first compound 0.05 µM) was 0.631 and the relative viability (NCI-H520; first compound 0.1581 µM) was 0.311. It also gave a relative viability (NCI-H520; first compound 0.5 µM) of 0.348, a relative viability (RERF-LC-KJ; first compound 0.005 µM) of 0.402 and a relative viability (RERF-LC-KJ; first compound 0.01581 µM) of 0.375. It also gave a relative viability (RERF-LC-KJ; first compound 0.05 µM) of 0.468, a relative viability (RERF-LC-KJ; first compound 0.1581 µM) of 0.411 and a relative viability (RERF-LC-KJ; first compound 0.5 µM) of 0.382. The relative viability (NCI-H441; first compound 0.005 µM) was 0.797, the relative viability (NCI-H441; first compound 0.01581 µM) was 0.782 and the relative viability (NCI-H441; first compound 0.05 µM) was 0.823. The relative viability (NCI-H441; first compound 0.1581 µM) was 0.881, the relative viability (NCI-H441; first compound 0.5 µM) was 0.735 and the relative viability (LCLC-103H; first compound 0.005 µM) was 0.325. The relative viability (LCLC-103H; first compound 0.01581 µM) was 0.326, the relative viability (LCLC-103H; first compound 0.05 µM) was 0.35 and the relative viability (LCLC-103H; first compound 0.1581 µM) was 0.306. For the same compound, the relative viability (LCLC-103H; first compound 0.5 µM) was 0.348, the relative viability (SK-MES-1; first compound 0.005 µM) was 0.622 and the relative viability (SK-MES-1; first compound 0.01581 µM) was 0.676. It also gave a relative viability (SK-MES-1; first compound 0.05 µM) of 0.71, a relative viability (SK-MES-1; first compound 0.1581 µM) of 0.688 and a relative viability (SK-MES-1; first compound 0.5 µM) of 0.602. The relative viability (NCI-H2347; first compound 0.01581 µM) was 0.484, the relative viability (NCI-H2347; first compound 0.05 µM) was 0.512 and the relative viability (NCI-H2347; first compound 0.5 µM) was 0.438. For the same compound, the relative viability (NCI-H1355; first compound 0.005 µM) was 0.413, the relative viability (NCI-H1355; first compound 0.01581 µM) was 0.432 and the relative viability (NCI-H1355; first compound 0.05 µM) was 0.481. It also gave a relative viability (NCI-H1355; first compound 0.1581 µM) of 0.43, a relative viability (NCI-H1355; first compound 0.5 µM) of 0.382 and a relative viability (NCI-H1915; first compound 0.005 µM) of 0.365. It also gave a relative viability (NCI-H1915; first compound 0.01581 µM) of 0.388, a relative viability (NCI-H1915; first compound 0.05 µM) of 0.317 and a relative viability (NCI-H1915; first compound 0.1581 µM) of 0.373. It also gave a relative viability (NCI-H1915; first compound 0.5 µM) of 0.309, a relative viability (NCI-H1563; first compound 0.005 µM) of 0.602 and a relative viability (NCI-H1563; first compound 0.01581 µM) of 0.634. For the same compound, the relative viability (NCI-H1563; first compound 0.05 µM) was 0.696, the relative viability (NCI-H1563; first compound 0.1581 µM) was 0.735 and the relative viability (NCI-H1563; first compound 0.5 µM) was 0.666. The relative viability (SW 900; first compound 0.005 µM) was 0.554, the relative viability (SW 900; first compound 0.01581 µM) was 0.71 and the relative viability (SW 900; first compound 0.05 µM) was 0.731. For the same compound, the relative viability (SW 900; first compound 0.1581 µM) was 0.492, the relative viability (SW 900; first compound 0.5 µM) was 0.524 and the relative viability (NCI-H522; first compound 0.005 µM) was 0.595. The relative viability (NCI-H522; first compound 0.01581 µM) was 0.73, the relative viability (NCI-H522; first compound 0.05 µM) was 0.593 and the relative viability (NCI-H522; first compound 0.1581 µM) was 0.619. The relative viability (NCI-H522; first compound 0.5 µM) was 0.705.
